Measurements taken from patent EP3917907B1, “MODULATORS OF POTASSIUM ION CHANNELS AND USES THEREOF” (Universitá Degli Studi Di Salerno, priority 2019, dated 2020).

Experiments:
Kv7.1 = target: T1, Kv7.1 (Homo sapiens, UniProt P51787); experiment: Whole-cell patch-clamp on CHO cells transiently expressing Kv7.1; type: cell-based; conditions: shift in ramp-voltage (ΔV) at 20% of maximal current, 0.01-10 µM
T1 construct: expressed in transfected cells; host or cells: CHO cells (ATCC CRL-9618), transient transfection, pcDNA3.1(+)
Method: (§1) According to the experimental protocol, these plasmids were expressed individually or in combination (in particular of Kv7.2 and Kv7.3), together with a plasmid-expressing enhanced green fluorescent protein (Clontech, Palo Alto, CA) used as a transfection marker. Total cDNA in the transfection mixture was kept at 4 µg. CHO cells were grown in 100-mm plastic Petri dishes in Dulbecco's modified Eagle's medium containing 10% fetal bovine serum, nonessential amino acids (0.1 mM), penicillin (50 U/ml), and streptomycin ([…]) in a humidified atmosphere at 37°C with 5% CO2. The cells were plated on glass coverslips coated with poly-L-lysine, and transfected one day after plating with the appropriate cDNA using Lipofectamine 2000 (Life Technologies), according to the manufacturer's protocol.
Currents from CHO cells were recorded at room temperature (20-22°C) 24 hours after trasfection using the whole-cell configuration of the patch-clamp technique, with glass micropipettes of 3-5 MΩ resistance. During the recording, constant perfusion of extracellular solution was maintained. The extracellular solution contained (in mM): 138 NaCl, 2 CaCl2, 5.4 KCl, 1 MgCl2, 10 glucose, and 10 HEPES, at pH 7.4, adjusted with NaOH. The pipette (intracellular) solution contained (in mM): 140 KCl, 2 MgCl2, 10 EGTA, 10 HEPES, 5 Mg^2+-ATP, at pH 7.3-7.4, adjusted with KOH. Currents were recorded using an Axopatch-200A amplifier, filtered at 5 kHz, and digitized using a DigiData 1440A (Molecular Devices). The pCLAMP software (version 10.2, Molecular Devices) was used for data acquisition and analysis. To evaluate the activity of exemplary compounds on Kv7.2 (see Table 1), as well as on Kv7.1, Kv7.2/7.3, Kv7.3 and Kv7.4 channels for selected compounds (see Table 2), the cells were clamped at -80 mV and currents were elicited by 3-s voltage ramps from -80 mV to +20 mV in the presence and absence of each compound. […] The effects of drugs were expressed as shift in the ramp-voltage (ΔV) calculated at 20% of the maximal current (Miceli et al, Proc Natl Acad Sci U S A. 2013, 110(11):4386-91). […]

[1] = Photostability (HPLC, solar simulator irradiation); type: physicochemical; conditions: for Photostability: percentage of degradation after 6 h irradiation with solar simulator, 100 ppm in extracellular solution pH 7.4
Method in brief: (§2)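 Analyte diluted from 1 mg/mL DMSO stock to 100 ppm in extracellular buffer (NaCl, CaCl2, KCl, MgCl2, glucose, HEPES, pH 7.4) and either kept at ambient temperature or irradiated with a solar simulator, each for 6 h. C18 RP-HPLC (40°C) peak areas at 0 and 6 h give % degradation = (Pa0−Pa6)/Pa0 ×100.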

Kv7.2/7.3 = target: T2, Kv7.2/7.3 (Homo sapiens, UniProt O43525+O43526); experiment: Whole-cell patch-clamp on CHO cells co-expressing Kv7.2 and Kv7.3; type: cell-based; conditions: for EC50: Kv7.2/7.3, shift in ramp-voltage (ΔV) at 20% of maximal current, 0.01-10 µM; for potency relative to retigabine in increasing Kv7.2/3 currents: from EC50 values of Table 2
T2 construct: expressed in transfected cells; host or cells: CHO cells (ATCC CRL-9618), transient co-transfection, pcDNA3.1(+)
Method: as §1
Currents from CHO cells were recorded at room temperature (20-22°C) 24 hours after trasfection using the whole-cell configuration of the patch-clamp technique, with glass micropipettes of 3-5 MΩ resistance. During the recording, constant perfusion of extracellular solution was maintained. The extracellular solution contained (in mM): 138 NaCl, 2 CaCl2, 5.4 KCl, 1 MgCl2, 10 glucose, and 10 HEPES, at pH 7.4, adjusted with NaOH. The pipette (intracellular) solution contained (in mM): 140 KCl, 2 MgCl2, 10 EGTA, 10 HEPES, 5 Mg^2+-ATP, at pH 7.3-7.4, adjusted with KOH. Currents were recorded using an Axopatch-200A amplifier, filtered at 5 kHz, and digitized using a DigiData 1440A (Molecular Devices). The pCLAMP software (version 10.2, Molecular Devices) was used for data acquisition and analysis. To evaluate the activity of exemplary compounds on Kv7.2 (see Table 1), as well as on Kv7.1, Kv7.2/7.3, Kv7.3 and Kv7.4 channels for selected compounds (see Table 2), the cells were clamped at -80 mV and currents were elicited by 3-s voltage ramps from -80 mV to +20 mV in the presence and absence of each compound. […] The effects of drugs were expressed as shift in the ramp-voltage (ΔV) calculated at 20% of the maximal current (Miceli et al, Proc Natl Acad Sci U S A. 2013, 110(11):4386-91). Curves were fitted using the following equation: y=max/(1+x/EC50)n, where x is the drug concentration, n is the Hill coefficient and max is the maximal value achieved, as previously described (Ambrosino et al, Br J Pharmacol. 2013, 168(6):1430-1444). Data analysis and fit were performed using Sigmaplot (version 12.3).

Kv7.3 = target: T3, Kv7.3 (Homo sapiens, UniProt O43525); experiment: Whole-cell patch-clamp on CHO cells transiently expressing Kv7.3; type: cell-based; conditions: shift in ramp-voltage (ΔV) at 20% of maximal current, 0.01-10 µM
T3 construct: expressed in transfected cells; host or cells: CHO cells (ATCC CRL-9618), transient transfection, pcDNA3.1(+)
Method: as §1
(§3) Currents from CHO cells were recorded at room temperature (20-22°C) 24 hours after trasfection using the whole-cell configuration of the patch-clamp technique, with glass micropipettes of 3-5 MΩ resistance. During the recording, constant perfusion of extracellular solution was maintained. […] Currents were recorded using an Axopatch-200A amplifier, filtered at 5 kHz, and digitized using a DigiData 1440A (Molecular Devices). […] The effects of drugs were expressed as shift in the ramp-voltage (ΔV) calculated at 20% of the maximal current (Miceli et al, Proc Natl Acad Sci U S A. 2013, 110(11):4386-91). […]

Kv7.2 W236L = target: T4, Kv7.2 W236L (Homo sapiens, UniProt O43526, W236L); experiment: Whole-cell patch-clamp on CHO cells expressing Kv7.2 W236L mutant channels; type: cell-based; conditions: 10 µM
T4 construct: expressed in transfected cells; host or cells: CHO cells (ATCC CRL-9618), transient transfection, pcDNA3.1(+)
Method: as §1, §3

Kv7.4 = target: T5, Kv7.4 (Homo sapiens, UniProt P56696); experiment: Whole-cell patch-clamp on CHO cells transiently expressing Kv7.4; type: cell-based; conditions: shift in ramp-voltage (ΔV) at 20% of maximal current, 0.01-10 µM
T5 construct: expressed in transfected cells; host or cells: CHO cells (ATCC CRL-9618), transient transfection, pcDNA3.1(+)
Method: as §1, §3

[2] = Solution stability (HPLC, extracellular solution, ambient temperature); type: physicochemical; conditions: percentage of degradation after 6 h at ambient temperature; 100 ppm in extracellular solution pH 7.4
Method in brief: as §2

Kv7.2 [3] = target: T6, Kv7.2 (Homo sapiens, UniProt O43526); experiment: Whole-cell patch-clamp on CHO cells transiently expressing Kv7.2; type: cell-based; conditions: for EC50: Kv7.2, shift in ramp-voltage (ΔV) at 20% of maximal current, 0.01-10 µM; for Idrug/Ictl at 0 mV: ratio of ramp-evoked Kv7.2 current amplitude in presence and absence of drug at 0 mV; for Idrug/Ictl at 0 mV / Idrug/Ictl at -40 mV: CHO cells, mean±SEM, >1 activating, <1 inhibiting; for Idrug/Ictl at -40 mV: ratio of ramp-evoked Kv7.2 current amplitude in presence and absence of drug at -40 mV
T6 construct: expressed in transfected cells; host or cells: CHO cells (ATCC CRL-9618), transient transfection, pcDNA3.1(+)

Kv7.2 [4] = experiment: as above; type: cell-based, human; conditions: ratio of EC50 values Kv7.3/Kv7.2
[5] = cited from earlier work

| SMILES | EC50 (Kv7.1) | Photostability [1] | EC50 (Kv7.2/7.3) | potency relative to retigabine in increasing Kv7.2/3 currents (Kv7.2/7.3) | EC50 (Kv7.3) | ratio between current amplitude in the presence and absence of the drug at -40 mV (Kv7.2 W236L) | EC50 (Kv7.4) | Solution stability [2] | EC50 (Kv7.2 [3]) | Idrug/Ictl at 0 mV (Kv7.2 [3]) | Idrug/Ictl at -40 mV (Kv7.2 [3]) | potency in activating Kv7.2 compared to Kv7.3 homomers (Kv7.2 [4]) | fast absorption after oral administration (time after administration) [5] | drug degraded after exposure to light ([1]; after 6 hours of exposure to light) |
| --- | --- | --- | --- | --- | --- | --- | --- | --- | --- | --- | --- | --- | --- | --- |
| CCCCCCC(=O)Nc1ccc2c(ccn2Cc2ccc(C(F)(F)F)cc2)c1 [N-(1-(4-(trifluoromethyl)benzyl)-1H-indol-5-yl)heptanamide] | Inactive | A (degradation lower than 20%) | 0.21 ± 0.14 µM | eight times more potent than retigabine | 10.5 ± 6 µM | 1.3±0.3 | 0.1 ± 0.02 µM | A (degradation lower than 20%) | 0.08 ± 0.04 µM | 3.24±0.18 | 9.34±0.82 | about 130 fold |  |  |
| CCCCCCC(=O)Nc1ccc(NCc2ccc(OC(F)(F)F)cc2)cc1N [N-(2-amino-4-((4-(trifluoromethoxy)benzyl)amino)phenyl)heptanamide] |  | B (20%< degradation<40%) |  |  |  |  |  | A (degradation lower than 20%) |  | 2.05±0.56 | 12.4±2.05 |  |  |  |
| Nc1cc(NCc2ccc(C(F)(F)F)cc2)ccc1NS(=O)(=O)C1CCCCC1 [N-(2-amino-4-((4-(trifluoromethyl)benzyl)amino)phenyl)cyclohexanesulfonamide] |  | C (degradation > 40%) |  |  |  |  |  | C (degradation > 40%) |  | 0.19±0.1 | 1.5±0.2 |  |  |  |
| CCCCCCC(=O)Nc1ccc(NCc2ccc(C(F)(F)F)cc2)cc1N [N-(2-amino-4-((4-(trifluoromethyl)benzyl)amino)phenyl)heptanamide] | Inactive | B (20%< degradation<40%) | 0.2 ± 0.1 µM | eight times more potent than retigabine |  |  |  | A (degradation lower than 20%) |  | 2.55±0.56 | 16.90±3.33 |  |  |  |
| CCCCCCC(=O)Nc1ccc(NCc2ccc(F)cc2)c(F)c1 [N-(3-fluoro-4-((4-fluorobenzyl)amino)phenyl)heptanamide] |  | A (degradation lower than 20%) |  |  |  |  |  | A (degradation lower than 20%) |  | 3.30±0.40 | 8.85±1.17 |  |  |  |
| CCOC(=O)Nc1ccc(NCc2ccc(F)cc2)cc1N [Retigabine, reference compound] | Inactive | C (degradation > 40%) | 1.72 ± 0.41 µM |  | 3.9 ± 1.7 µM | 1.2±0.1 | 1.98 ± 0.84 µM | A (degradation lower than 20%) | 0.93 ± 0.43 µM | 1.95±0.12 | 6.20±1.03 | 4 fold | 1.5 to 2.0 h | > 40% |
| CCOC(=O)Nc1ccc2c(c1)CCN2Cc1ccc(F)cc1 [ethyl (1-(4-fluorobenzyl)indolin-5-yl)carbamate] |  | C (degradation > 40%) |  |  |  |  |  | A (degradation lower than 20%) |  | 1.26±0.13 | 2.01±0.58 |  |  |  |
